The results in this text go back to ChEMBL document CHEMBL5108009, “Positron Emission Tomography (PET) Imaging Tracers for Serotonin Receptors” (J Med Chem, 2022).

Usually Ki stands for the dissociation constant of the complex between target and ligand, obtained from inhibition or displacement. As a reminder, the IC50 is the concentration needed to halve the response being measured. Higher therefore signals lower potency. Broadly, the Kd is the equilibrium constant for the complex coming apart.

In series [1] the target is Serotonin 3 (5-HT3) receptor. As to the kind of experiment: Binding affinity to 5-HT3 receptor (unknown origin) assessed as inhibition constant. Type of series: protein-complex assay, Homo sapiens.
Series [2] deals with 5-hydroxytryptamine receptor 6 (Homo sapiens, UniProt P50406). As to the kind of experiment: Binding affinity to human recombinant 5-HT6 receptor assessed as inhibition constant.
Series [3] in a line: Drug uptake in pig striatum relative to control. Type of series: ADME, tissue-based, Sus scrofa. To be noted: in vivo.
A short description of series [4]: Drug uptake in Papio anubis striatum relative to control. Type of series: ADME, tissue-based.
Series [5] can be described thus: Drug uptake in human striatum relative to control. Type of series: ADME, tissue-based.
The target in series [6] is T1, 5-hydroxytryptamine receptor 2A (Homo sapiens, UniProt P28223). Put plainly: Binding affinity to human recombinant 5-HT2A assessed as inhibition constant.
The target in series [7] is Serotonin 2 (5-HT2) receptor (Homo sapiens, UniProt P41595+P28223+P28335). Put plainly: Binding affinity to cerebrum 5-HT2 receptor (unknown origin). Type of series: tissue-based.
Series [8] can be described thus: Ratio of drug uptake in human frontal cortex to cerebellum at 15 mCi measured after 30 mins postinjection by PET imaging. Type of series: ADME, organism-based, Brain frontal cortex/cerebellum. To be noted: in vivo, 0.5 h.
A short description of series [9]: Ratio of drug uptake in human frontal cortex to cerebellum at 15 mCi measured after 60 mins postinjection by PET imaging. Type of series: ADME, organism-based, Brain frontal cortex/cerebellum. To be noted: in vivo, 1 h.
The target in series [10] is T2, D(2) dopamine receptor (Rattus norvegicus, UniProt P61169). As to the kind of experiment: Displacement of [3H]-spiperone from rat striatum D2 receptor.
The target in series [11] is Serotonin 2 (5-HT2) receptor (Rattus norvegicus, UniProt P30994+P08909+P14842). Put plainly: Displacement of [3H]-spiperone from rat frontal cortex 5-HT2 receptor. The series is classed as tissue-based. In general terms: Loss of bound radioactivity is the signal in a displacement assay; it reports binding, not function.
Series [12] has as its target T3, Alpha-1A adrenergic receptor (Rattus norvegicus, UniProt P43140).
T3 sequence (P43140 whole entry): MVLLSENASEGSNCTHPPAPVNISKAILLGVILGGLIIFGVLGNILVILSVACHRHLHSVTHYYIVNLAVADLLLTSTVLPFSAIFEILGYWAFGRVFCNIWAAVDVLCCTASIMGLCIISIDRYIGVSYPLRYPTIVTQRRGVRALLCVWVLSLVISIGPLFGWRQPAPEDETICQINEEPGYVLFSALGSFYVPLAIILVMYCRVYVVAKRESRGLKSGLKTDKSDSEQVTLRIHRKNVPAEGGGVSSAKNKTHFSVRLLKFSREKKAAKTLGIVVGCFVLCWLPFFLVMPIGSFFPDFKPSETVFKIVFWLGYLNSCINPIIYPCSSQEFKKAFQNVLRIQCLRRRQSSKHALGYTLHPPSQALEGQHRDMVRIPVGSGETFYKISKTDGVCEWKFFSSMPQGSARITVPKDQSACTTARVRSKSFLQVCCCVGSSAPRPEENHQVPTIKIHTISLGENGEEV
As to the kind of experiment: Displacement of [3H]prazosin from rat cerebral cortex alpha1 adrenergic receptor. Type of series: tissue-based.

Series [13] has as its target T4, 5-hydroxytryptamine receptor 2A (Rattus norvegicus, UniProt P14842). As to the kind of experiment: Binding affinity to rat frontal cortex homogenate 5-HT2A by ketanserin assay. The series is classed as tissue-based.
The target of series [14] is T1, 5-hydroxytryptamine receptor 2A. Put plainly: Binding affinity to human frontal cortex homogenate 5-HT2A by ketanserin assay. The series is classed as tissue-based.
Series [15] deals with T4, 5-hydroxytryptamine receptor 2A. Put plainly: Antagonist activity at rat 5-HT2A receptor. The series is classed as functional.
Series [16] addresses T2, D(2) dopamine receptor. As to the kind of experiment: Displacement of [3H]-spiperone from rat striatal membrane D2 receptor. The series is classed as cell membranes, Striatum.
Series [17] addresses T4, 5-hydroxytryptamine receptor 2A. As to the kind of experiment: Displacement of [3H]-Ketanserin from rat cortical membrane 5-HT2A receptor. Type of series: cell membranes, Cortex.
For series [18], the target named is T3, Alpha-1A adrenergic receptor. As to the kind of experiment: Displacement of [3H]prazosin from rat whole brain alpha1 adrenergic receptor. Type of series: tissue-based.
The target is the same in series [19]. As to the kind of experiment: Displacement of [3H]-WB4101 from rat forebrain alpha 1 adrenergic receptors. The series is classed as tissue-based.
Series [20] has as its target T2, D(2) dopamine receptor. Put plainly: Displacement of [3H]-halopridol from rat striatum D2 receptors.
The target of series [21] is T5, 5-hydroxytryptamine receptor 2C (Homo sapiens, UniProt P28335).
T5 sequence (P28335 whole entry): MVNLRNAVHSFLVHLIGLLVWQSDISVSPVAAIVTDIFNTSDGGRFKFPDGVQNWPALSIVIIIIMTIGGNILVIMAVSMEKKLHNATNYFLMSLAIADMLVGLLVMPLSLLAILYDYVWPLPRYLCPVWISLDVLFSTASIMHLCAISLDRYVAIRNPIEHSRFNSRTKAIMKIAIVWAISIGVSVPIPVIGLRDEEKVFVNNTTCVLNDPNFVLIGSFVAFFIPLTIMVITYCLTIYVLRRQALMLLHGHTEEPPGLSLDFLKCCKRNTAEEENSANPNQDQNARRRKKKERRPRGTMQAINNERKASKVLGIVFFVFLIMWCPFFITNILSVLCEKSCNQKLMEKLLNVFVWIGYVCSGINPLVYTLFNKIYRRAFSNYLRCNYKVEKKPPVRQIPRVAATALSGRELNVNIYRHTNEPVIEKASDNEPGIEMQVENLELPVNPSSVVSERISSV
Put plainly: Binding affinity to human 5-HT2C assessed as inhibition constant.

The nature of series [22]: Drug uptake in pig brain cortex measured at 10 to 20 mins postinjection. To be noted: in vivo, time 10-20 min. The series is classed as ADME, organism-based, Sus scrofa.
Series [23] is described as follows: Drug uptake in pig brain cortex assessed as non-displaceable binding potential. The series is classed as ADME, tissue-based, Sus scrofa. To be noted: in vivo.
The target in series [24] is T1, 5-hydroxytryptamine receptor 2A. As to the kind of experiment: Binding affinity to human 5-HT2A assessed as inhibition constant.
For series [25], the target named is T5, 5-hydroxytryptamine receptor 2C. As to the kind of experiment: Displacement of [3H]-mesulergine from 5-HT2C (unknown origin) assessed as inhibition constant by radioligand competitive binding assay.
Series [26] has as its target T6, 5-hydroxytryptamine receptor 1A (Homo sapiens, UniProt P08908).
T6 sequence (P08908 whole entry): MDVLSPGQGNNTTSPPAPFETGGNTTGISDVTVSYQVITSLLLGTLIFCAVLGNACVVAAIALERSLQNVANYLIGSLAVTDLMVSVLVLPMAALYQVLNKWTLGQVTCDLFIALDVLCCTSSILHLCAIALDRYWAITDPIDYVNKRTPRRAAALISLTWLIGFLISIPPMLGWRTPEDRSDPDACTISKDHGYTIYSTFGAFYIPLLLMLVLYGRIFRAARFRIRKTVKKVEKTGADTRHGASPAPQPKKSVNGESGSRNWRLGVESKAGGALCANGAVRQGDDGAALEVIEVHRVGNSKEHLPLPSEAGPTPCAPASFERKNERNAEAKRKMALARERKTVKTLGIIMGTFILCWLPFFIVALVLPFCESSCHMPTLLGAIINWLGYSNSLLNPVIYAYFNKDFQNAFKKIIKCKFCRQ
As to the kind of experiment: Displacement of [3H]-mesulergine from 5-HT1A (unknown origin) assessed as inhibition constant by radioligand competitive binding assay.

In series [27] the target is 5-hydroxytryptamine receptor 2B (Homo sapiens, UniProt P41595). Put plainly: Displacement of [3H]-mesulergine from 5-HT2B (unknown origin) assessed as inhibition constant by radioligand competitive binding assay.
The nature of series [28]: In vivo binding affinity of Papio anubis baboon 5-HT2C assessed as inhibition constant measured after 1 to 21 mins postinjection. The series is classed as functional, organism-based.
For series [29], the target named is T2, D(2) dopamine receptor. As to the kind of experiment: Displacement of [3H]-spiperone from rat frontal cortex membrane homogenate D2 receptor. Type of series: cell membranes.
The target in series [30] is T3, Alpha-1A adrenergic receptor. Put plainly: Displacement of [3H]-prazosin from rat whole cortex membrane homogenate alpha 1 adrenergic receptor. The series is classed as cell membranes.
A short description of series [31]: Drug uptake in human frontal cortex assessed as non-displaceable binding potential. The series is classed as ADME, tissue-based.
Series [32] can be described thus: Ratio of drug uptake in rat cortex to cerebellum at steady state. The series is classed as ADME, tissue-based. To be noted: in vivo.
The nature of series [33]: Binding affinity to rat cerebral cortex homogenate 5-HT1A receptor assessed as inhibition constant. The series is classed as tissue-based.
A short description of series [34]: Ratio of drug uptake in human cortex to cerebellum assessed as increase in uptake relative to control. Type of series: ADME, tissue-based.
In series [35] the target is T4, 5-hydroxytryptamine receptor 2A. Put plainly: Binding affinity to rat frontal cortex 5-HT2A assessed as inhibition constant. Type of series: tissue-based.
For series [36] the target is unchanged. Put plainly: Binding affinity to rat frontal cortex 5-HT2A assessed as dissociation constant. The series is classed as tissue-based.

T4 sequence (P14842 whole entry): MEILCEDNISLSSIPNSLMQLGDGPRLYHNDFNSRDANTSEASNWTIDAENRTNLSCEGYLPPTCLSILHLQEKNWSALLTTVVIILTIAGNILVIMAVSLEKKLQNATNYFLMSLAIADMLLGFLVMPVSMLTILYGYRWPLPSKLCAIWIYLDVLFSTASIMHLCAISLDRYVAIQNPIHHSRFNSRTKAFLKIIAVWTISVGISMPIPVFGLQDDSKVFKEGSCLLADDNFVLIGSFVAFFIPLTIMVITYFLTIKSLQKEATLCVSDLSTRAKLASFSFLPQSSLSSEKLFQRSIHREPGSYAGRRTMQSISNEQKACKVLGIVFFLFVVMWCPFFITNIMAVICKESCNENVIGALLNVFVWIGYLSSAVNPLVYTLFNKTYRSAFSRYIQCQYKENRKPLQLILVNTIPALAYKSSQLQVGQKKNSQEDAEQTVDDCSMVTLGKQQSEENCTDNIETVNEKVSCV
T2 sequence (P61169 whole entry): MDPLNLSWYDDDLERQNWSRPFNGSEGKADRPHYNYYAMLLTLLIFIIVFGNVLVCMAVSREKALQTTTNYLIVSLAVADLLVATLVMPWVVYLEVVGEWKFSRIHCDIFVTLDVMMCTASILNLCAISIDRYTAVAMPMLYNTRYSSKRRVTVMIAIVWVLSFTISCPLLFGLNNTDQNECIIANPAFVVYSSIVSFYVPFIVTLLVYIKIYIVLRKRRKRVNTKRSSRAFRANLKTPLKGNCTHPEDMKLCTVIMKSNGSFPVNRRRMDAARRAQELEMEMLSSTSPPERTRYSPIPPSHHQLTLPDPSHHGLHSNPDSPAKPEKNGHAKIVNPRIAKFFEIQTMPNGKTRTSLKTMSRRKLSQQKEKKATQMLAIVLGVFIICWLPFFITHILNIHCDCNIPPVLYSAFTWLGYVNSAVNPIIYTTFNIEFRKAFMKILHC
T1 sequence (P28223 whole entry): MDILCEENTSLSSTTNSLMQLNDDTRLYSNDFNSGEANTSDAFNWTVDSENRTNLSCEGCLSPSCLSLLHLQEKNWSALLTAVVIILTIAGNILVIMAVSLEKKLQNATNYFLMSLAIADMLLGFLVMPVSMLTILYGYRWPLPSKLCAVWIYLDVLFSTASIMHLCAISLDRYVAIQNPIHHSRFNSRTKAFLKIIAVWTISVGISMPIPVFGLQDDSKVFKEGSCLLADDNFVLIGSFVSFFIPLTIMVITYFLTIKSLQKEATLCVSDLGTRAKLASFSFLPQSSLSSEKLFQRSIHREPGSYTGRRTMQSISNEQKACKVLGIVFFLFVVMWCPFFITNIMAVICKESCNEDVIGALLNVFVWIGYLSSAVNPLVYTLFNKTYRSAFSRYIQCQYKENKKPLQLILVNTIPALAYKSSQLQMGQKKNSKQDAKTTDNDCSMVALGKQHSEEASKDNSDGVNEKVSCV
Chain of 5-hydroxytryptamine receptor 2B (P41595 whole entry): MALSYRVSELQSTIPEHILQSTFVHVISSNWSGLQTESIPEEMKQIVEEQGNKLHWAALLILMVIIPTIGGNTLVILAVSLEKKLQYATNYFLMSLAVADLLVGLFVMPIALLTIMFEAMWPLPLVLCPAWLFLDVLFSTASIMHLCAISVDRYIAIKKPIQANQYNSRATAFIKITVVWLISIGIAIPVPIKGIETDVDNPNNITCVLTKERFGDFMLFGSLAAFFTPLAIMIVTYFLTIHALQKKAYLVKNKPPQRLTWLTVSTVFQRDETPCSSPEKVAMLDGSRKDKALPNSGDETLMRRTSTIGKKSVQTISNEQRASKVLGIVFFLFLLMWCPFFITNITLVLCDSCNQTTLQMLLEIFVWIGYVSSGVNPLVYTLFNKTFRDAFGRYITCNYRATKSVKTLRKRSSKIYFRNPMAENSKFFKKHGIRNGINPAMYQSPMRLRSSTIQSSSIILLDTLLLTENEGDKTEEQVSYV
Chain of 5-hydroxytryptamine receptor 6 (P50406 whole entry): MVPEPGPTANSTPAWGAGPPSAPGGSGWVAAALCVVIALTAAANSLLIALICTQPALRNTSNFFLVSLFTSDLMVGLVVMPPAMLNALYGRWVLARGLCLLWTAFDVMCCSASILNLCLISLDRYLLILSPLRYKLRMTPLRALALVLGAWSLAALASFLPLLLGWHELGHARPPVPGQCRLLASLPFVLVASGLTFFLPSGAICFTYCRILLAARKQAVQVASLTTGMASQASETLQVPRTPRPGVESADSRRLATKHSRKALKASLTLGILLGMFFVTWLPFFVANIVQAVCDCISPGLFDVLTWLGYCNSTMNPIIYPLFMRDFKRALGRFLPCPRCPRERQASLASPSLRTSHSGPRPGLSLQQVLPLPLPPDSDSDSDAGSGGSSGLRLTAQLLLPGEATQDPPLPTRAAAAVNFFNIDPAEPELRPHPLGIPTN

With `c1ccc(CN2CCN(c3nc4ccsc4n4cccc34)CC2)cc1`, the inhibition constant (Ki) in [1] amounted to 1 nM.

In the case of `[11CH3]N1CCN(c2cccc3cc(S(=O)(=O)c4cccc(F)c4)cnc23)CC1`, the inhibitory constant (Ki) was determined as 0.79 nM in series [2] and 0.16 nM in series [6]. The Drug uptake is reported as 3.5 %Idose/L in [3], 10.5 %Idose/L in series [4] and 11.5 %Idose/L in [5].

Molecule `CCN(CC)C(=O)[C@@H]1C=C2c3cccc4c3c(c(Br)n4[11CH3])CC2N(C)C1` (stereo partly specified) yielded an inhibition constant Ki in series [7] of 0.5 nM. Also, the Ratio in series [8] is 1.7; in series [9], 2.7.

For `CN1CN(c2ccccc2)C2(CCN(CCCC(=O)c3ccc(F)cc3)CC2)C1=O` [MESPIPERONE], the figures for the IC50 in series [10], in series [11] and in [12] were 0.23 nM, 1.3 nM and 10.1 nM, respectively. Further, the values for the Ki in series [13] and in [14] were 0.5 nM and 8.8 nM, respectively.

In series [15], `COc1cccc(CCc2ccccc2OCC[C@@H]2C[C@@H](O)CN2C)c1` displayed a Ki of 0.79 nM.

With `Cc1ccc2c(c1)c(-c1ccc(F)cc1)c(C)n2C1CCN(C)CC1`, the Ki amounted to 2600 nM in [16], 5.3 nM in series [17] and 2700 nM in [18].

On to `O=C(c1ccc(F)cc1)C1CCN(CCn2c(=S)[nH]c3ccccc3c2=O)CC1` [ALTANSERIN], for which the Ki in series [19] turned out to be 5 nM; in series [20], 62 nM.

In the case of `COc1cc(CCNCc2ccccc2O[11CH3])c(OC)cc1Br`, the values for the Ki in series [21] and in [24] were 1.7 nM and 0.5 nM, respectively. In addition, the SUV in series [22] came out at 0.8. For the same molecule, the Drug uptake in series [23] turned out to be 0.62.

As for `[11CH3]N1CCc2nc3ccnn3c(N3CCC3)c2CC1`, the Ki was 75 nM in series [25], above 1000 nM in [26], above 1000 nM in series [27] and 161 nM in series [28].

Take `CCN(CC)C(=O)[C@@H]1C=C2c3cccc4c3c(c(Br)n4C)CC2N(C)C1` (stereo partly specified): the Ki came out at 3.9 nM in series [29] and 34 nM in series [30].

As to `COc1c(OCC[18F])cccc1C(O)C1CCN(CCc2ccc(F)cc2)CC1` (racemic), the Drug uptake in series [31] is given as 1.5. In addition, in series [32], the Ratio is on record as 3.2.

Turning to `O=S1(=O)c2cccc3cccc(c23)N1CCCN1CCN(c2ccc(F)cc2)CC1` [FANANSERIN], the Ki in [33] turned out to be 70 nM.

In the case of `[2H]C([2H])(Cn1c(=S)[nH]c2ccccc2c1=O)N1CCC(C(=O)c2ccc([18F])cc2)CC1`, the Drug uptake in [34] worked out at 26%.

As to `CC1(NC(=O)c2ccc(N)cc2)CCN(CCCOc2ccc(F)cc2)CC1`, the Ki in series [35] turned out to be 0.2 nM. Besides, in [36], the equilibrium dissociation constant (Kd) is 0.11 nM.
